{
  "source": "PubChem BioAssay AID2060498",
  "about": "(Molecular Pharmacology Branch, DTP, NCI, 2025);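 also: spheroids exposed to compounds for 7 days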;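 as to viability, T/C: 100% = DMSO vehicle control viability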",
  "system": "171881-019-R-J1-PDC tumor spheroids, viability",
  "experiment": "Anticancer human tumor 171881-019-R-J1-PDC patient-derived invasive breast carcinoma cell line growth inhibition [GQUAD]",
  "conditions": "spheroids with HUVEC and MSC; for IC50: curve of first compound; for viability, T/C: stronger effect = lower value",
  "excerpt": "DNA G-quadruplex Stabilizer Agents in Combinations in Complex Spheroids\nA high-throughput screen of multi-cell type tumor spheroids was designed to identify active combinations of DNA G-quadruplex stabilizer agents and targeted small molecules. Complex spheroids include a stromal component modeled by human endothelial cells (HUVEC) and fibroblasts modeled by human mesenchymal stem cells (MSCs). The concentration ranges selected for each drug and investigational agent were based upon clinically achievable concentrations if the clinical Cmax of the agent was known.\nCompounds. The drugs and investigational agents: pidnarulex (CX-5461; NSC782164), APTO-253 (NSC789042), BRACO-19 (NSC847499), peposertib (NSC802822), ceralasertib (NSC780249), elimusertib (NSC800525), camonsertib (NSC841442), AZD-1390 (NSC803789), olaparib (NSC753686), talazoparib (NSC767125), ART-558 (NSC835418), sotorasib (NSC818433), MRTX-1133 (NSC836407), SN-38 (NSC673596), topotecan (NSC609699), etoposide (NSC141540), doxorubicin (NSC123127), gemcitabine (NSC613327), 5-fluorouracil (NSC19893), paclitaxel (NSC125973), vemurafenib (NSC761431), panobinostat (NSC761190), R-306465 (JNJ-16241199; NSC773264), adavosertib (NSC754352), TP-3654 (NSC805149), carboplatin (NSC241240), KSQ-4279 (NSC840948), and staurosporine (NSC755774) were obtained from the National Cancer Institute (NCI) Developmental Therapeutics Program Chemical Repository (34). The FDA-approved anticancer drug set is available from the NCI Developmental Therapeutics Program. […] The stock solutions were prepared in dimethyl sulfoxide (DMSO, Sigma-Aldrich, St. Louis, MO, cat. D2650) at 800-fold the tested concentration and stored at -70 degrees C prior to their use. All drugs and investigational agents were tested over a range starting from a high concentration at or near the clinical Cmax and decreasing in half-log increments. If the clinical Cmax for an agent had not been determined, the highest concentration tested was 10 microM.\n2.3 Cell Culture. All cells were maintained in an incubator at 37 degrees C and 5% CO2 with 95% humidity. The PDC lines were cultured according to standard operating procedures established by the NCI PDMR. All PDCs were thawed and cultured in Matrigel-coated flasks prepared with a working solution of 1X Ham's F-12 nutrient mix, without supplementation (Invitrogen, cat. 11765054), 100 U/mL penicillin-streptomycin (Invitrogen, cat. 15140122), and 2.5% Matrigel (Corning Inc., cat. 354248) for the first three passages. The 857933-349-R-J2-PDC line was cultured in 6C/Colon 1B media, which includes advanced DMEM/F-12 (Thermo Fisher Scientific, cat. 12634028), 10 mM HEPES (Thermo Fisher Scientific, cat. 15630080), 1X GlutaMAX supplement (Thermo Fisher Scientific, cat. 35050061), 0.1 mg/mL primocin (InvivoGen, cat. ant-pm-2), 10% defined fetal bovine serum, heat inactivated (HyClone Laboratories Inc., cat. SH30070.03HI), 50% L-WRN conditioned media (ATCC, cat. CRL-3276), 1.25 mM N-Acetyl-L-cysteine (Sigma-Aldrich, cat. A9165), 10 mM nicotinamide (Sigma-Aldrich, cat. N0636), 1X B-27 supplement (Thermo Fisher Scientific, cat. 17504044), 1X N-2 supplement (Thermo Fisher Scientific, cat. 17502048), 10 microM Y-27632 dihydrochloride (Tocris Bioscience, cat. 1254), and 50 ng/mL human EGF recombinant protein (Thermo Fisher Scientific, cat. PHG0311). The 485176-168-R4-J1-PDC line was cultured in Panc media, which includes all 6C/Colon 1B media components plus 100 ng/mL human FGF-10 (Thermo Fisher Scientific, cat. 100-26), 500 nM SB-431542 (Selleckchem, cat. S1067), and gastrin (Tocris, cat. 3006).\n[…]",
  "data": [
    {"smiles": "Cc1[nH]c2ccccc2c1CCNCc1ccc(/C=C/C(=O)NO)cc1", "note": "+ CN(C)c1ccc(Nc2c3ccc(NC(=O)CCN4CCCC4)cc3nc3cc(NC(=O)CCN4CCCC4)ccc23)cc1", "values": [
      {"measurement": "IC50", "setting": "second compound 0.0316 µM", "value": 55, "unit": "nM"},
      {"measurement": "IC50", "setting": "second compound 0.1 µM", "value": 51.4, "unit": "nM"},
      {"measurement": "IC50", "setting": "second compound 0.316 µM", "value": "< 0.999", "unit": "nM"},
      {"measurement": "IC50", "setting": "second compound 1 µM", "value": "< 0.999", "unit": "nM"},
      {"measurement": "IC50", "setting": "second compound 3.16 µM", "value": "< 0.999", "unit": "nM"},
      {"measurement": "IC50", "setting": "second compound 10 µM", "value": "< 0.999", "unit": "nM"},
      {"measurement": "viability, T/C", "setting": "second compound 0.0316 µM, first compound 0.000999 µM", "value": 96.9, "unit": "%"},
      {"measurement": "viability, T/C", "setting": "second compound 0.0316 µM, first compound 0.00316 µM", "value": 104, "unit": "%"},
      {"measurement": "viability, T/C", "setting": "second compound 0.0316 µM, first compound 0.00999 µM", "value": 89.9, "unit": "%"},
      {"measurement": "viability, T/C", "setting": "second compound 0.0316 µM, first compound 0.0316 µM", "value": 76.9, "unit": "%"},
      {"measurement": "viability, T/C", "setting": "second compound 0.0316 µM, first compound 0.0999 µM", "value": 22, "unit": "%"},
      {"measurement": "viability, T/C", "setting": "second compound 0.0316 µM, first compound 0.316 µM", "value": 0.39, "unit": "%"},
      {"measurement": "viability, T/C", "setting": "second compound 0.1 µM, first compound 0.000999 µM", "value": 95.4, "unit": "%"},
      {"measurement": "viability, T/C", "setting": "second compound 0.1 µM, first compound 0.00316 µM", "value": 75.1, "unit": "%"},
      {"measurement": "viability, T/C", "setting": "second compound 0.1 µM, first compound 0.00999 µM", "value": 84.5, "unit": "%"},
      {"measurement": "viability, T/C", "setting": "second compound 0.1 µM, first compound 0.0316 µM", "value": 71.8, "unit": "%"},
      {"measurement": "viability, T/C", "setting": "second compound 0.1 µM, first compound 0.0999 µM", "value": 20.2, "unit": "%"},
      {"measurement": "viability, T/C", "setting": "second compound 0.1 µM, first compound 0.316 µM", "value": 0.39, "unit": "%"},
      {"measurement": "viability, T/C", "setting": "second compound 0.316 µM, first compound 0.000999 µM", "value": 46.9, "unit": "%"},
      {"measurement": "viability, T/C", "setting": "second compound 0.316 µM, first compound 0.00316 µM", "value": 45.1, "unit": "%"},
      {"measurement": "viability, T/C", "setting": "second compound 0.316 µM, first compound 0.00999 µM", "value": 48.8, "unit": "%"},
      {"measurement": "viability, T/C", "setting": "second compound 0.316 µM, first compound 0.0316 µM", "value": 28, "unit": "%"},
      {"measurement": "viability, T/C", "setting": "second compound 0.316 µM, first compound 0.0999 µM", "value": 10.8, "unit": "%"},
      {"measurement": "viability, T/C", "setting": "second compound 0.316 µM, first compound 0.316 µM", "value": 0.26, "unit": "%"},
      {"measurement": "viability, T/C", "setting": "second compound 1 µM, first compound 0.000999 µM", "value": 4.23, "unit": "%"},
      {"measurement": "viability, T/C", "setting": "second compound 1 µM, first compound 0.00316 µM", "value": 3.43, "unit": "%"},
      {"measurement": "viability, T/C", "setting": "second compound 1 µM, first compound 0.00999 µM", "value": 4.51, "unit": "%"},
      {"measurement": "viability, T/C", "setting": "second compound 1 µM, first compound 0.0316 µM", "value": 1.92, "unit": "%"},
      {"measurement": "viability, T/C", "setting": "second compound 1 µM, first compound 0.0999 µM", "value": 0.8, "unit": "%"},
      {"measurement": "viability, T/C", "setting": "second compound 1 µM, first compound 0.316 µM", "value": 0.38, "unit": "%"},
      {"measurement": "viability, T/C", "setting": "second compound 3.16 µM, first compound 0.000999 µM", "value": 0.41, "unit": "%"},
      {"measurement": "viability, T/C", "setting": "second compound 3.16 µM, first compound 0.00316 µM", "value": 0.27, "unit": "%"},
      {"measurement": "viability, T/C", "setting": "second compound 3.16 µM, first compound 0.00999 µM", "value": 0.37, "unit": "%"},
      {"measurement": "viability, T/C", "setting": "second compound 3.16 µM, first compound 0.0316 µM", "value": 0.25, "unit": "%"},
      {"measurement": "viability, T/C", "setting": "second compound 3.16 µM, first compound 0.0999 µM", "value": 0.14, "unit": "%"},
      {"measurement": "viability, T/C", "setting": "second compound 3.16 µM, first compound 0.316 µM", "value": 0.13, "unit": "%"},
      {"measurement": "viability, T/C", "setting": "second compound 10 µM, first compound 0.000999 µM", "value": 0.18, "unit": "%"},
      {"measurement": "viability, T/C", "setting": "second compound 10 µM, first compound 0.00316 µM", "value": 0.19, "unit": "%"},
      {"measurement": "viability, T/C", "setting": "second compound 10 µM, first compound 0.00999 µM", "value": 0.16, "unit": "%"},
      {"measurement": "viability, T/C", "setting": "second compound 10 µM, first compound 0.0316 µM", "value": 0.44, "unit": "%"},
      {"measurement": "viability, T/C", "setting": "second compound 10 µM, first compound 0.0999 µM", "value": 0.27, "unit": "%"},
      {"measurement": "viability, T/C", "setting": "second compound 10 µM, first compound 0.316 µM", "value": 0.17, "unit": "%"}
    ]}
  ]
}
